Source: the supplement of paper PMC10307832

Compound: Cn1cc(-c2cnn3c(N)c(Br)c([C@@H]4CCCNC4)nc23)cn1
Experiment: relative viability (nuclei count vs DMSO), 5 days (fraction); higher = more cells survive
Summary of the method: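 Vehicle-anchored 1536-well plates of lung cancer cell lines, held overnight at 37 °C, were pinned with five library-drug doses (not always all listed) spaced by √10. No medium change followed over the next 5 days, after which the cells were fixed, permeabilised and Hoechst-stained together and imaged at 4×. Nuclei were counted with MetaXpress, and viability is treated-well nuclei over vehicle-well nuclei, taken as a median across plates. Plates passed with control CV below 25% and at least one doubling.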

Cell Line	relative viability (0.05 µM)	relative viability (0.1581 µM)	relative viability (0.5 µM)	relative viability (1.581 µM)	relative viability (5 µM)
NCI-H441	1.28	1.26	1.15	0.862	1.31
NCI-H1793	1.07	1.12	0.927	0.91	0.786
NCI-H23	0.91	1.02	0.925	0.573	0.272
HARA	0.975	1.03	1.31	0.761	0.301
NCI-H1792	0.869	1.08	0.96	0.575	0.835
NCI-H1703	0.925	0.664	0.529	0.347	0.159
NCI-H2342	0.974	1.23	1.05	0.947	0.91
CAL-12T	1.03	1.06	1.08	0.68	0.265
NCI-H727	0.964	1.07	0.941	0.82	0.57
NCI-H2085	0.996	1.12	1.04	0.932	0.853
NCI-H1395	0.813	0.713	0.926	0.548	0.45
NCI-H1648	0.926	0.958	0.669	0.749	0.83
NCI-H460	0.946	1.1	0.993	0.952	0.811
A549	1.01	1.07	0.946	0.847	0.813
IA-LM	0.917	0.976	1.05	0.779	0.541
EKVX	1.04	1.01	1.07	0.862	0.929
ChaGo-K-1	0.99	1.08	1.09	0.89	0.997
NCI-H1755	1.07	1.06	1	0.887	0.882
NCI-H2228	1.08	1.1	0.927	0.6	0.554
NCI-H2087	1.15	1.31	1.02	0.948	0.898
LU99A	0.952	0.985	0.901	0.949	0.926
NCI-H1355	0.973	1.07	1.04	0.919	0.883
NCI-H520	0.897	0.998	0.899	0.904	0.717
NCI-H661	1.01	0.977	1.03	1.01	0.772
NCI-H650	0.994	0.875	1.03	0.844	0.715
NCI-H647	0.937	1.07	0.972	0.769	0.417

Cell Line	relative viability (0.05 µM)	relative viability (0.1581 µM)	relative viability (0.5 µM)	relative viability (1.581 µM)	relative viability (5 µM)
201T	0.972	1.01	0.996	0.86	0.746
NCI-H838	0.955	1.06	0.882	0.885	0.878
SW 1573	0.93	1.07	1.12	0.924	0.894
PC-14	1.04	1.01	1.01	0.707	0.425
LK-2	1.04	0.951	0.836	0.729	0.711
COR-L23	1.08	1.26	1.11	0.803	0.45
NCI-H1944	0.947	1.07	0.929	0.713	0.481
HCC-78	1	1.04	1.09	0.957	0.749
NCI-H2405	0.935	1.01	0.959	0.983	0.769
SK-LU-1	1.18	0.696	0.809	0.432	0.268
EMC-BAC-2	0.917	1.03	0.976	0.949	0.827
NCI-H1650	0.862	1.08	1.12	0.707	0.494
NCI-H596	0.985	1.15	0.887	0.916	0.766
LCLC-97TM1	0.982	1.11	1.1	0.969	0.925
H3255	1.02	0.935	1.03	0.974	0.57
LXF-289	1.03	1.14	1.03	1.01	1.06
UMC-11	1.08	0.873	0.856	0.788	0.565
LC-2-ad	1.02	1.05	1.02	0.899	1.04
SK-MES-1	1.09	1.08	0.979	0.606	0.34
A-427	1.04	0.919	1.01	0.784	0.607
NCI-H322M	0.766	0.842	0.863	0.684	0.408
HCC-366	1.04	1.04	0.984	1.06	0.944
NCI-H1975	1.03	0.922	0.908	0.803	0.847
NCI-H1437	1.02	1.11	1.06	0.847	0.832
NCI-H2009	1.03	1.05	0.981	0.931	0.858
NCI-H1651	1.01	0.993	0.917	0.783	0.503

Cell Line	relative viability (0.05 µM)	relative viability (0.1581 µM)	relative viability (0.5 µM)	relative viability (1.581 µM)	relative viability (5 µM)
LCLC-103H	1.03	0.986	1.05	0.909	1.03
NCI-H1666	1.02	1.04	1.02	0.981	0.875
NCI-H1734	0.916	1.1	0.963	0.78	0.793
EPLC-272H	1	0.974	0.896	0.628	0.379
NCI-H2023	0.982	0.89	0.705	0.304	0.167
BEN	1.05	0.902	0.904	0.972	0.834
COR-L 105	0.85	0.85	0.843	0.705	0.656
ABC-1	0.938	0.988	0.758	0.566	0.455
HCC-15	1.07	1.08	1.06	0.928	0.936
NCI-H2170	0.991	1.03	0.93	1.01	1.07
PC-3 [JPC-3]	0.957	1.01	1.01	1.02	1.03
NCI-H1993	0.846	0.942	0.955	0.716	0.794
NCI-H358	0.988	1.1	0.877	0.771	0.749
NCI-H1563	0.941	0.878	0.966	0.942	0.873
EBC-1	1.12	1.16	0.882	0.822	0.869
NCI-H1915	0.984	0.998	0.971	0.868	0.969
RERF-LC-KJ	1.05	1.01	1.01	0.859	0.896
LOU-NH91	0.949	0.985	0.937	0.952	0.811
NCI-H2347	0.987	1.09	1.2	0.953	0.853
NCI-H2126	0.986	1.07	1	0.899	0.95
HCC-827	0.971	1.08	1.07	1.12	0.945
Calu-6	1.06	0.905	0.828	0.438	0.219
NCI-H3122	1.03	1.03	1.03	1.06	1.1
HOP-62	1.07	1.16	0.956	1.01	0.812
HCC-44	0.918	1.06	1.01	0.994	0.953
